For this test, the system named is L1210 leukemia ip in BDF1 mice, survival T/C. Description: NCI In Vivo Anticancer Drug Screen. Data for tumor model L1210 Leukemia (intraperitoneal) in B6D2F1 (BDF1) mice. The conditions noted are these: endpoint: mean survival time, higher = longer survival. The essentials:
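Value reflects the ratio of survival in compound-treated mice to survival in vehicle-treated controls, with both groups carrying the same transplanted tumor.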

[1] abbreviates: dose: 100.0 mg/kg/injection, schedule: Q04DX003 (ip), vehicle: saline with Tween-80.
The mark [2] stands for this setting: dose: 100.0 mg/kg/injection, schedule: Q01DX001 (ip), vehicle: saline with Tween-80.
Setting [3] is: dose: 200.0 mg/kg/injection, schedule: Q01DX001 (ip), vehicle: saline with Tween-80.

“And” between values parts separate entries of the source, which are not always exact repeats. Equal values may be shown once. Inconclusive results and toxic doses are left out.

This note sets out measurements from PubChem BioAssay AID248 (DTP/NCI, 2004).

With `O=C(NO)c1ccccc1O`, the T/C was 97 % of control (dose: 85.0 mg/kg/injection, schedule: Q03HX032 (ip), vehicle: other); 104 % of control (dose: 100.0 mg/kg/injection, schedule: Q01DX009 (ip), vehicle: Klucel (hydroxypropylcellulose) (HPC)); 98 % of control and 108 % of control (dose: 100.0 mg/kg/injection, schedule: Q04DX002 (ip), vehicle: carboxymethylcellulose (CMC)); 101 % of control and 118 % of control (dose: 100.0 mg/kg/injection, schedule: Q04DX003 (ip), vehicle: carboxymethylcellulose (CMC)); 102 % of control (dose: 130.0 mg/kg/injection, schedule: Q03HX032 (ip), vehicle: other); 112 % of control (dose: 200.0 mg/kg/injection, schedule: Q01DX009 (ip), vehicle: Klucel (hydroxypropylcellulose) (HPC)). The T/C runs as follows: (dose: 200.0 mg/kg/injection, schedule: Q01DX015 (ip), vehicle: other) 105 % of control; (dose: 200.0 mg/kg/injection, schedule: Q03HX032 (ip), vehicle: other) 105 % of control; (dose: 200.0 mg/kg/injection, schedule: Q04DX002 (ip), vehicle: carboxymethylcellulose (CMC)) 98 % of control and 108 % of control; (dose: 200.0 mg/kg/injection, schedule: Q04DX003 (ip), vehicle: carboxymethylcellulose (CMC)) 99 % of control and 103 % of control; (dose: 266.0 mg/kg/injection, schedule: Q01DX009 (ip), vehicle: saline) 97 % of control; (dose: 300.0 mg/kg/injection, schedule: Q01DX015 (ip), vehicle: other) 93 % of control. For the same compound, the T/C is 121 % of control (dose: 300.0 mg/kg/injection, schedule: Q03HX032 (ip), vehicle: other); 105 % of control (dose: 400.0 mg/kg/injection, schedule: Q01DX009 (ip), vehicle: Klucel (hydroxypropylcellulose) (HPC)); 97 % of control (dose: 400.0 mg/kg/injection, schedule: Q01DX009 (ip), vehicle: saline); 96 % of control and 104 % of control (dose: 400.0 mg/kg/injection, schedule: Q04DX002 (ip), vehicle: carboxymethylcellulose (CMC)); 105 % of control (dose: 400.0 mg/kg/injection, schedule: Q04DX003 (ip), vehicle: carboxymethylcellulose (CMC)); 108 % of control (dose: 450.0 mg/kg/injection, schedule: Q01DX015 (ip), vehicle: other). Besides, the T/C is 208 % of control (dose: 450.0 mg/kg/injection, schedule: Q03HX032 (ip), vehicle: other); 104 % of control (dose: 600.0 mg/kg/injection, schedule: Q01DX009 (ip), vehicle: saline); 86 % of control (dose: 670.0 mg/kg/injection, schedule: Q01DX015 (ip), vehicle: other); 104 % of control (dose: 900.0 mg/kg/injection, schedule: Q01DX009 (ip), vehicle: saline).
For the compound `OCCNC(=S)SCc1ccccc1`, the T/C is 102 % of control (dose: 100.0 mg/kg/injection, schedule: Q01DX009 (sc), vehicle: olive oil, sesame oil, peanut oil); 96 % of control (dose: 100.0 mg/kg/injection, schedule: Q04DX003 (sc), vehicle: olive oil, sesame oil, peanut oil); 120 % of control (dose: 200.0 mg/kg/injection, schedule: Q01DX009 (sc), vehicle: olive oil, sesame oil, peanut oil); 98 % of control (dose: 200.0 mg/kg/injection, schedule: Q04DX003 (sc), vehicle: olive oil, sesame oil, peanut oil); 105 % of control (dose: 400.0 mg/kg/injection, schedule: Q04DX003 (sc), vehicle: olive oil, sesame oil, peanut oil).
In the case of `Cn1nnc(N/N=C/c2ccccc2)n1`, the T/C by setting is: (dose: 6.25 mg/kg/injection, schedule: Q04DX003 (ip), vehicle: saline with Tween-80) 100 % of control; (dose: 12.5 mg/kg/injection, schedule: Q04DX003 (ip), vehicle: saline with Tween-80) 107 % of control; (dose: 25.0 mg/kg/injection, schedule: Q01DX009 (ip), vehicle: saline with Tween-80) 94 % of control; (dose: 25.0 mg/kg/injection, schedule: Q04DX003 (ip), vehicle: saline with Tween-80) 94 % of control and 109 % of control; (dose: 50.0 mg/kg/injection, schedule: Q04DX003 (ip), vehicle: saline with Tween-80) 95 % of control; under setting [1], 88 % of control.
As to `COc1ccc(CCO)cc1OC`, the T/C (dose: 50.0 mg/kg/injection, schedule: Q01DX001 (ip), vehicle: carboxymethylcellulose (CMC)) was 95 % of control; the T/C (dose: 100.0 mg/kg/injection, schedule: Q01DX009 (ip), vehicle: water) was 93 % of control; the T/C (dose: 100.0 mg/kg/injection, schedule: Q04DX003 (ip), vehicle: water) is 100 % of control; the T/C (dose: 200.0 mg/kg/injection, schedule: Q01DX009 (ip), vehicle: water) was 93 % of control; the T/C (dose: 200.0 mg/kg/injection, schedule: Q04DX003 (ip), vehicle: water) was 97 % of control; the T/C (dose: 400.0 mg/kg/injection, schedule: Q01DX001 (ip), vehicle: carboxymethylcellulose (CMC)) was 97 % of control. The T/C is, setting by setting: (dose: 400.0 mg/kg/injection, schedule: Q01DX009 (ip), vehicle: water) 95 % of control; (dose: 400.0 mg/kg/injection, schedule: Q04DX003 (ip), vehicle: water) 97 % of control.
With `CC(=O)NC1CCC(NC(C)=O)CC1` (configuration not stated), the T/C (dose: 100.0 mg/kg/injection, schedule: Q01DX001 (ip), vehicle: saline) was 104 % of control; the T/C (dose: 200.0 mg/kg/injection, schedule: Q01DX001 (ip), vehicle: saline) was 97 % of control; the T/C (dose: 400.0 mg/kg/injection, schedule: Q01DX001 (ip), vehicle: saline) was 104 % of control.
Consider `CCOC(=O)Cc1cc(=O)c2ccccc2[nH]1`, for which the T/C is 96 % of control (dose: 100.0 mg/kg/injection, schedule: Q04DX003 (ip), vehicle: acetone); 97 % of control (dose: 200.0 mg/kg/injection, schedule: Q04DX003 (ip), vehicle: acetone); 103 % of control (dose: 400.0 mg/kg/injection, schedule: Q04DX003 (ip), vehicle: acetone).
Consider `c1ccc(-c2cc[s+]s2)cc1`, for which the T/C (dose: 12.5 mg/kg/injection, schedule: Q01DX009 (ip), vehicle: water) was 95 % of control; the T/C (dose: 12.5 mg/kg/injection, schedule: Q04DX003 (ip), vehicle: water) was 98 % of control; the T/C (dose: 25.0 mg/kg/injection, schedule: Q01DX009 (ip), vehicle: water) is 91 % of control; the T/C (dose: 25.0 mg/kg/injection, schedule: Q04DX003 (ip), vehicle: water) is 96 % of control; the T/C (dose: 50.0 mg/kg/injection, schedule: Q01DX009 (ip), vehicle: water) was 98 % of control; the T/C (dose: 50.0 mg/kg/injection, schedule: Q04DX003 (ip), vehicle: water) was 109 % of control.
With `COc1ccc(Cl)cc1NC(=O)Oc1ccccc1C(N)=O`, the T/C by setting is: (dose: 25.0 mg/kg/injection, schedule: Q01DX009 (ip), vehicle: saline) 106 % of control and 113 % of control; (dose: 25.0 mg/kg/injection, schedule: Q04DX002 (ip), vehicle: saline with Tween-80) 104 % of control and 112 % of control; (dose: 50.0 mg/kg/injection, schedule: Q01DX009 (ip), vehicle: saline) 102 % of control; (dose: 50.0 mg/kg/injection, schedule: Q04DX002 (ip), vehicle: saline with Tween-80) 102 % of control and 91 % of control; under setting [2], 107 % of control; (dose: 100.0 mg/kg/injection, schedule: Q01DX009 (ip), vehicle: saline with Tween-80) 86 % of control. In addition, the T/C (dose: 100.0 mg/kg/injection, schedule: Q01DX009 (ip), vehicle: saline) was 98 % of control; the T/C under setting [1] was 104 % of control; the T/C under setting [3] is 108 % of control; the T/C (dose: 200.0 mg/kg/injection, schedule: Q04DX002 (ip), vehicle: saline with Tween-80) was 110 % of control.
As to `CNC(=S)N/N=C/c1cc(Cl)cc(Cl)c1`, the T/C was 102 % of control (dose: 100.0 mg/kg/injection, schedule: Q01DX001 (ip), vehicle: other); 102 % of control (dose: 200.0 mg/kg/injection, schedule: Q01DX001 (ip), vehicle: other); 98 % of control (dose: 400.0 mg/kg/injection, schedule: Q01DX001 (ip), vehicle: other).
`CC(=O)OC1CCC2(C)C(CCC3C4CCC(C(C)CC(=O)O)C4CCC32)C1` (configuration not stated): the T/C reads like this: (dose: 100.0 mg/kg/injection, schedule: Q04DX003 (sc), vehicle: steriod suspending solution) 106 % of control; (dose: 200.0 mg/kg/injection, schedule: Q04DX003 (sc), vehicle: steriod suspending solution) 106 % of control; (dose: 400.0 mg/kg/injection, schedule: Q04DX003 (sc), vehicle: steriod suspending solution) 111 % of control.
Consider `C1=CCC2CN(CCCN3CCOCC3)CC2C1` (configuration not stated), for which the T/C was 103 % of control under setting [2]; 108 % of control under setting [3]; 105 % of control (dose: 400.0 mg/kg/injection, schedule: Q01DX001 (ip), vehicle: saline with Tween-80).
